Laboratory results reported in US20230140132A1, “ARGINASE INHIBITORS AND METHODS OF USE” (MERCK SHARP & DOHME LLC, priority 2020, published 2023).

Experiments:
Arginase = biological target: T1, Arginase (Homo sapiens, UniProt P05089); assay: Arginase Thioornithine Generating Assay (TOGA); type: biochemical; settings: recombinant arginase 1.88 nM, thioarginine substrate, fluorescence readout
T1 sequence (P05089 1-322): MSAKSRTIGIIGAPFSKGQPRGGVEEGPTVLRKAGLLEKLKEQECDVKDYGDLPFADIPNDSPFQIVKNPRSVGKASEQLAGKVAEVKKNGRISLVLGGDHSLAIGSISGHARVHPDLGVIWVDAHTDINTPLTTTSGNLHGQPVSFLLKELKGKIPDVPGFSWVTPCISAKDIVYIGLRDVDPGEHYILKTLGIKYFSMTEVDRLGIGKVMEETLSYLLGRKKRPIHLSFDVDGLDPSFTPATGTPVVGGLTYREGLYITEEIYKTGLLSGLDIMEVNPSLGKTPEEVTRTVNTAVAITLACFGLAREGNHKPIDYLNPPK
Protocol: Compounds were serially diluted in ten 3-fold steps in DMSO starting from 10 mM DMSO stocks. Compound dilutions or DMSO alone were then dispensed from the dilution plate into a Greiner black 384-well assay plate (catalog #781086) using an Echo 555 acoustic liquid handler (Labcyte).
Arginase protein was recombinantly expressed in Escherichia coli. Purified protein was then diluted in assay buffer (50 mM Tris pH 7.5, 50 mM NaCl, 1 mM manganese chloride, 0.05% bovine serum albumin to obtain a final Arginase concentration of 1.88 nM. Arginase solution (20 μL) or buffer alone (20 μL) were dispensed to wells of the assay plate using a BioRAPTR liquid dispenser (Beckman Coulter). Assay plates containing compound and arginase enzyme were incubated at room temperature for 30 minutes. Afterwards, 5 μL of 2.5 mM thioarginine (Cayman Chemicals) in assay buffer were added to each well of the assay plate using a BioRAPTR liquid dispenser. Plates were incubated at room temperature for 60 minutes and reactions were quenched by addition of 15 μL of 200 uM 7-Diethylamine-3-(4-maleimidophenyl)-4-methylcoumarin (Sigma Chemical) in 70% ethanol. Plates were briefly shaken to mix and the fluorescence was measured in an Spectramax plate reader (Molecular Devices) with a 410 nm excitation wavelength and an 490 nm emission wavelength.
Potencies were calculated by […] to the four parameter logistic IC50 equation.

[1] = test system: corpus cavernosum of the diabetic person; settings: ex vivo, Bivalacqua et al. 2001; cited from earlier work
[2] = test system: engorgement response in the genitalia; settings: live female rabbits; Cama et al. 2003; cited from earlier work
erectile response = settings: live male rabbits; Cama et al. 2003; cited from earlier work
[3] = test system: experimental autoimmune encephalomyelitis; settings: Xu et al. 2003; cited from earlier work
[4] = test system: opossum internal anal sphincter muscle; settings: Baggio et al. 1999; cited from earlier work
[5] = test system: rabbit and human penile corpus cavernosum; settings: Cox et al. 1999; cited from earlier work
[6] = test system: airway hyperresponsiveness; settings: guinea pigs, nebulizer treatment, allergic asthma model; cited from earlier work

SMILES: C[C@]1(CCCB(O)O)[C@@H](C(=O)O)N[C@H]2C[C@H]21 [Example 24, (1S,3S,4R,5S)-4-(3-boronopropyl)-4-methyl-2-azabicyclo[3.1.0]hexane-3-carboxylic Acid]
- IC50 (Arginase): 5740 nM

SMILES: C[C@]1(CCCB(O)O)[C@@H](C(=O)O)N[C@@H]2CC[C@@H]21 [Example 17, (1R,3S,4R,5R)-4-(3-boronopropyl)-4-methyl-2-azabicyclo[3.2.0]heptane-3-carboxylic Acid]
- IC50 (Arginase): 66.5 nM

SMILES: O=C(O)[C@H]1NC[C@@H]2NCC[C@@]21CCCB(O)O [Example 1, (3aS,4S,6aR)-3a-(3-boronopropyl)octahydropyrrolo[3,4-b]pyrrole-4-carboxylic Acid]
- IC50 (Arginase): 1.61 nM

SMILES: O=C(O)[C@H]1NC[C@@H]2NC[C@@]21CCCB(O)O [Example 34, (1S,2S,5R)-1-(3-boronopropyl)-3,6-diazabicyclo[3.2.0]heptane-2-carboxylic Acid]
- IC50 (Arginase): 104 nM

SMILES: N[C@@H](CCCCB(O)O)C(=O)O [ABH, (S)-2-amino-6-boronohexanoic acid]
- nitric oxide biosynthesis [1]: restores nitric oxide biosynthesis
- engorgement response in the genitalia [2]: enhances the engorgement response
- erectile response (erectile response): enhances the erectile response
- disease score [3]: improves the disease score of animals
- relaxation of internal anal sphincter muscle [4]: relax this muscle
- nitric oxide-dependent relaxation of corpus cavernosum tissue [5]: enhances the nitric oxide-dependent relaxation of this tissue
- airway hyperresponsiveness [6]: prevents airway hyperresponsiveness
